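In this assay, cells in 96-well plates receive the compound at five concentrations for 48 hours. Endpoints are linearly interpolated between the surrounding concentrations. At the GI50, growth is halved. TGI: concentration producing complete growth inhibition.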
How the values were obtained:
Assay in all cases: NCI anticancer screen, dose series, 48 h; in the data active = GI50 below about 0.43 µM; inactive = the rest
[1] = tested on: PC-3 prostate
[2] = tested on: COLO 205 colon
[3] = tested on: M14 melanoma
[4] = tested on: LOX IMVI melanoma
[5] = tested on: OVCAR-8 ovarian
[6] = tested on: IGROV1 ovarian
[7] = tested on: K-562 leukemia
[8] = tested on: NCI-H522 lung
[9] = tested on: HCT-116 colon
[10] = tested on: SF-539 CNS
[11] = tested on: U251 CNS
[12] = tested on: SW-620 colon
[13] = tested on: UACC-62 melanoma
[14] = tested on: NCI-H460 lung
[15] = tested on: SNB-75 CNS
[16] = tested on: UO-31 renal
[17] = tested on: HCC-2998 colon
[18] = tested on: MALME-3M melanoma
[19] = tested on: TK-10 renal
[20] = tested on: A549 NSCLC
[21] = tested on: MDA-N
[22] = tested on: CAKI-1 renal
[23] = tested on: MCF7 breast
[24] = tested on: SK-MEL-28 melanoma
[25] = tested on: SR leukemia
[26] = tested on: HL-60(TB) leukemia
[27] = tested on: SN12C renal
[28] = tested on: SNB-19 CNS
[29] = tested on: DU-145 prostate
[30] = tested on: SF-268 CNS
[31] = tested on: SK-MEL-5 melanoma
[32] = tested on: SF-295 CNS
[33] = tested on: MDA-MB-435
[34] = tested on: T-47D breast
[35] = tested on: 786-0 renal
[36] = tested on: HCT-15 colon
[37] = tested on: KM12 colon
[38] = tested on: SK-OV-3 ovarian
[39] = tested on: RXF 393 renal
[40] = tested on: EKVX NSCLC
[41] = tested on: OVCAR-3 ovarian
[42] = tested on: HOP-92 NSCLC
[43] = tested on: ACHN renal
[44] = tested on: OVCAR-5 ovarian
[45] = tested on: HT29 colon
[46] = tested on: SK-MEL-2 melanoma
[47] = tested on: UACC-257 melanoma
[48] = tested on: OVCAR-4 ovarian
[49] = tested on: NCI-H23 lung
[50] = tested on: HS 578T breast
[51] = tested on: HOP-62 NSCLC
[52] = tested on: A498 renal
[53] = tested on: NCI/ADR-RES ovarian
[54] = tested on: NCI-H226 lung
[55] = tested on: MOLT-4 leukemia
[56] = tested on: RPMI-8226 leukemia
[57] = tested on: MDA-MB-231 breast
[58] = tested on: CCRF-CEM leukemia
[59] = tested on: BT-549 breast

CC(C)(C)C1=C(Br)C(Br)(C(C)(C)C)OP1(=O)c1ccccc1 (stereo unspecified)
> 100 µM: TGI [1] | TGI [2] | TGI [3] | TGI [4] | TGI [5] | TGI [6] | TGI [7] | TGI [8] | TGI [9] | TGI [10] | TGI [11] | TGI [12] | TGI [13] | TGI [14] | TGI [15] | TGI [16] | TGI [17] | TGI [18] | TGI [19] | TGI [20] | TGI [21] | TGI [22] | TGI [23] | TGI [24] | TGI [25] | TGI [26] | TGI [27] | TGI [28] | TGI [29] | TGI [30] | TGI [31] | TGI [32] | TGI [33] | TGI [34] | TGI [35] | TGI [36] | TGI [37] | TGI [38] | TGI [39] | TGI [40] | TGI [41] | TGI [42] | TGI [43] | TGI [44] | TGI [45] | TGI [46] | TGI [47] | TGI [48] | TGI [49] | TGI [50] | TGI [51] | TGI [52] | TGI [53]

CCCCC(=O)OCC1OC(n2cnc3c(=S)nc[nH]c32)C(OC(=O)CCCC)C1OC(=O)CCCC (stereo unspecified)
> 84.5 µM: TGI [42]
> 39.4 µM: TGI [6]
5.18 µM: TGI [2]
> 36.7 µM: TGI [17]
> 80.3 µM: TGI [38]
> 96.1 µM: TGI [52]
10.7 µM: TGI [3]
active: GI50 [15] 0.213 µM
> 100 µM: TGI [1] | TGI [54] | TGI [55] | TGI [4] | TGI [5] | TGI [7] | TGI [9] | TGI [11] | TGI [12] | TGI [13] | TGI [14] | TGI [16] | TGI [18] | TGI [19] | TGI [20] | TGI [22] | TGI [23] | TGI [24] | TGI [25] | TGI [26] | TGI [56] | TGI [27] | TGI [28] | TGI [29] | TGI [30] | TGI [33] | TGI [35] | TGI [36] | TGI [37] | TGI [39] | TGI [40] | TGI [43] | TGI [44] | TGI [57] | TGI [58] | TGI [45] | TGI [47] | TGI [48] | TGI [49] | TGI [50] | TGI [51] | TGI [53]
> 28.7 µM: TGI [59]
inactive: GI50 [1] 2.21 µM | GI50 [55] 5.74 µM | GI50 [2] 1.37 µM | GI50 [3] 0.779 µM | GI50 [4] 1.11 µM | GI50 [5] 3.05 µM | GI50 [6] 3.86 µM | GI50 [7] 2.03 µM | GI50 [8] 0.498 µM | GI50 [9] 2.15 µM | GI50 [10] 2.07 µM | GI50 [11] 13.4 µM | GI50 [12] 1.51 µM | GI50 [13] 0.899 µM | GI50 [14] 4.38 µM | GI50 [16] 2.2 µM | GI50 [17] 0.565 µM | GI50 [18] > 22.1 µM | GI50 [19] 0.608 µM | GI50 [20] > 25.3 µM | GI50 [22] 2.26 µM | GI50 [23] 1.13 µM | GI50 [24] 57.4 µM | GI50 [25] 7.5 µM | GI50 [26] 3.55 µM | GI50 [56] 5.81 µM | GI50 [27] 2.78 µM | GI50 [28] 17.9 µM | GI50 [29] 0.636 µM | GI50 [30] 3.96 µM | GI50 [31] 1.76 µM | GI50 [32] 1.54 µM | GI50 [33] 2.21 µM | GI50 [34] 1.17 µM | GI50 [35] 2.24 µM | GI50 [36] 1.56 µM | GI50 [37] 1.48 µM | GI50 [38] 0.636 µM | GI50 [39] > 71.4 µM | GI50 [41] 1.01 µM | GI50 [42] 1 µM | GI50 [43] 2.59 µM | GI50 [44] 3.65 µM | GI50 [57] 5.22 µM | GI50 [58] 3.25 µM | GI50 [45] 3.64 µM | GI50 [46] 1.61 µM | GI50 [47] 11.9 µM | GI50 [59] 1.11 µM | GI50 [48] 0.441 µM | GI50 [49] 1.36 µM | GI50 [50] > 35.4 µM | GI50 [51] 1.01 µM | GI50 [52] 9.54 µM | GI50 [53] 3.51 µM
> 26.4 µM: TGI [32]
> 46.5 µM: TGI [31]
> 36.3 µM: TGI [41]
> 62 µM: TGI [10]
> 59 µM: TGI [34]
> 78.7 µM: TGI [46]
60.2 µM: TGI [8]

Reference: PubChem BioAssay (NCI)
